Reference: publication PMC4682813, “The Aminosteroid Derivative RM-133 Shows In Vitro and In Vivo Antitumor Activity in Human Ovarian and Pancreatic Cancers” (PLoS ONE, 2015)
Values joined by “and” are separate entries in the source; they are usually repeats but may differ in a detail not shown here. Identical values can stand only once. Like-named read-outs stand apart in the source and are kept apart here.

How the values were obtained:
[1] = RM-133 plasma and tumor concentration in nude mice after the xenograft experiment (second part), LC-MS/MS; format: in vivo, nu/nu nude mice; details: for concentration at 12 h: 12 h after single s.c. 60 mg/kg (0.1 mL)
Protocol: At the end of the xenograft experiment, and in order to obtain preliminary pharmacological data, mice in treated groups were separated into 4 subgroups of 2–3 mice each, injected s.c. with RM-133 (60 mg/kg) and sacrificed after 3, 7, 12, or 24 h. In parallel, mice in the control group were also separated into 4 subgroups, treated with RM-133 (60 mg/kg) as for treated mice, and sacrificed at the same intervals. Blood was collected from mice by cardiac puncture, and the plasma concentration of RM-133 determined by liquid chromatography–tandem mass spectrometry (LC-MS/MS) as previously reported. Tumors of the mice in the treated group were collected at necropsy, pooled, homogenized according to a known procedure and the quantity of RM-133 was determined by LC-MS/MS.

[2] = Plasma concentration of RM-133 with different vehicles; format: in vivo, Balb/c mice; details: female, Balb/c, mouse, sc, 120 mg/kg, single s.c. 120 mg/kg in 0.1 mL
Excerpt: (§1) Eleven different vehicles were investigated by s.c. injection. These vehicles were formulated as follows: vehicle #1 [propylene glycol:EtOH (92:8)]; vehicle #2 [aqueous 0.4% methylcellulose:EtOH (92:8)]; vehicle #3 [castor oil:EtOH:benzyl alcohol:benzyl benzoate (65:10:10:15)]; vehicle #4 [sunflower oil:EtOH (92:8)]; vehicle #5 [sunflower oil:tetrahydrofuran (92:8)]; vehicle #6 [aqueous 25% β-cyclodextrin:EtOH (92:8)]; vehicle #7 [sesame oil:EtOH:benzyl benzoate:benzyl alcohol:Tween 80 (89.8:7.8:1:1:0.5)]; vehicle #8 [soya oil:EtOH (92:8)]; vehicle #9 [RPMI medium:EtOH (92:8)]; vehicle #10 [saline:dimethyl sulfoxide (DMSO):Tween 80 (89.5:10:0.5)]; and vehicle #11 [saline:benzyl alcohol:carboxymethylcellulose:Tween 80 (98.2:0.9:0.5:0.4)]. The eight vehicles producing the best RM-133 solubility (#1–8) were injected s.c. (0.1 mL) without the test compound (RM-133) for tolerance and behavioral evaluation studies, by observing mice at 0.25, 1, 3, 7, 23, 26, 28, 30, and 96 h post-injection. Finally, RM-133 was injected s.c. once at 120 mg/kg/0.1 mL of the best […] tolerated vehicles (#1,2,4–7) into ♀ Balb/c mice (4 per group), and mice were next monitored with blood collection by cardiac puncture after 3 and 12 h. The plasma concentration of RM-133 was then determined by LC-MS/MS as above.

[3] = Solubility of RM-133 in injection vehicles; format: physicochemical; details: vehicle #5 sunflower oil:tetrahydrofuran (92:8)
Excerpt: as §1

[4] = system: OVCAR-3 tumors xenografted in nu/nu nude mice; experiment: OVCAR-3 xenografts using the two selected vehicles; format: in vivo
Excerpt: (§2) All in vivo experiments were approved by our Institutional Animal Care and Use Committee (Comités de protection des animaux de l’Université Laval) and carried out according to the guidelines of the Canadian Council on Animal Care. For xenografts, homozygous ♀ nu/nu nude mice (24–42 days old) were purchased from Charles River Inc. (Saint-Constant, QC, Canada) and housed (four to five) in vinyl micro-isolated ventilated cages, equipped with air lids, which were kept in laminar airflow hoods and maintained under pathogen-limiting conditions. During the acclimatization and study period, the animals were housed under a controlled environment at 22 ± 3°C, with 50 ± 20% relative humidity and light set at 12 h/day (light on at 07:15). Rodent food (Rodent diet #T.2018.15, Harlan Teklad, Madison, WI) and water were provided ad libitum. For nu/nu nude mice, food and water were sterilized prior to dispensing to the animals. Standard Balb/c mice were used for pharmacokinetic studies. Animals were anesthetized with isoflurane and killed by cervical dislocation.
Fourty ♀ nu/nu nude mice (22–24 g) were inoculated with 5×10^6 OVCAR-3 cells per flank, in 30% matrigel-containing culture medium (0.1 mL). After 23 days, tumor-bearing mice were randomized in 4 groups of 8 to 9 mice each. […] Two control mouse groups, each representing 12 tumors, received only the vehicles. As mentioned above, the tumor area was measured twice weekly and body weight monitored.

[5] = system: PANC-1 tumors xenografted in nu/nu nude mice; experiment: PANC-1 xenografts in nude mice; format: in vivo; details: aqueous 0.4% methylcellulose:EtOH (92:8), 240 mg/kg s.c. twice a day every other day
Excerpt: as §2
Twenty female nu/nu nude mice (22–24 g) were inoculated with 5×10^6 PANC-1 cells per flank, in 30% matrigel-containing culture medium (0.1 mL). Ten days after inoculation, tumor-bearing mice were randomized in 2 groups of 10 mice each. […] Mice in the second (control) group (n = 18 tumors) received the vehicle only. As with previous xenografts, the tumor area was measured and mouse body weight monitored.

[6] = mouse, in vivo
Protocol: Ten ♀ Balb/c mice weighing approximately 23 g were separated in 3 groups. […] Mice in groups 1 and 2 received a total of 8 injections over 4 days and were sacrificed on day 8. Mice behavior was monitored during the whole duration of the experiment, and macroscopic observation of organs was performed upon necropsy.

CYP3A4 = system: CYP3A4; parameters: method as in PMID 25300820; details: low to moderate risk of drug-drug interactions; cited from earlier work
[7] = vehicle #1 propylene glycol (92%) EtOH (8%)
[8] = vehicle #2 aqueous 0.4% methylcellulose (92%) EtOH (8%)
[9] = vehicle #4 sunflower oil (92%) EtOH (8%)
[10] = vehicle #5 sunflower oil (92%) tetrahydrofuran (8%)
[11] = vehicle #6 aqueous 25% β-cyclodextrin (92%) EtOH (8%)
[12] = sunflower oil:EtOH (92:8), 240 mg/kg s.c. every other day

Compound: C#C[C@]1(O)CC[C@H]2[C@@H]3CC[C@H]4C[C@H](O)[C@@H](N5CCN(C(=O)[C@@H]6CCCN6C(=O)c6ccc7ccccc7n6)CC5)C[C@]4(C)[C@H]3CC[C@@]21C [RM-133]
- accumulation in blood ([1]; 21 days-xenograft experiment, 60 mg/kg daily s.c.): does not accumulate in blood
- concentration inside the tumor ([1]; OVCAR-3 tumors of treated mice collected at necropsy, pooled): 1.2 μM and 773 ng/g
- concentration at 12 h ([1]; nu/nu nude, mouse, plasma, sc, 60 mg/kg, group A: previously treated daily for 21 days): 178 ng/mL
- concentration at 12 h ([1]; nu/nu nude, mouse, plasma, sc, 60 mg/kg, group B: not previously exposed to the drug): 91 ng/mL
- concentration at 24 h ([1]; nu/nu nude, mouse, plasma, sc, 60 mg/kg, single s.c. 60 mg/kg in 0.1 mL propylene glycol:EtOH (92:8), 24 h, nude mice): 81 ng/mL
- maximum average plasma concentration ([1]; single s.c. 60 mg/kg in 0.1 mL propylene glycol:EtOH (92:8), 3 h, nude mice): 460 ng/mL
- concentration at 3 h [2, 7]: 314 ± 2 ng/mL
- concentration at 12 h [2, 7]: 189 ± 5 ng/mL
- concentration at 3 h [2, 8]: 449 ± 5 ng/mL
- concentration at 12 h [2, 8]: 171 ± 10 ng/mL
- concentration at 3 h [2, 9]: 285 ± 5 ng/mL
- concentration at 12 h [2, 9]: 173 ± 6 ng/mL
- concentration at 3 h [2, 10]: 642 ± 20 ng/mL
- concentration at 12 h [2, 10]: 374 ± 9 ng/mL
- concentration at 3 h [2, 11]: 2960 ± 121 ng/mL
- concentration at 12 h [2, 11]: 1780 ± 47 ng/mL
- solubility in vehicle [3]: poorly soluble
- day at which tumor growth became significantly different from control ([4]; aqueous 0.4% methylcellulose:EtOH (92:8), 240 mg/kg s.c. twice a day every other day): 15 days
- tumor size relative to its initial value ([4]; aqueous 0.4% methylcellulose:EtOH (92:8), 240 mg/kg s.c. twice a day every other day, end of treatment (35 days)): 78%
- OVCAR-3 tumor growth inhibition ([4]; aqueous 0.4% methylcellulose:EtOH (92:8), 240 mg/kg/0.2 mL s.c. twice a day every other day, after 28 days): 100%
- abnormal behavior or death ([4]; aqueous 0.4% methylcellulose:EtOH (92:8), 35-day treatment period): neither abnormal behavior nor death
- reduction of OVCAR-3 xenograft growth ([4]; methylcellulose-based vehicle, s.c. (abstract)): 122%
- body weight, treated vs control [4, 12]: No significant difference
- day at which the effect on tumor growth became significant [4, 12]: 28 days
- toxicity symptoms during the study or at necropsy [4, 12]: no toxicity symptom
- OVCAR-3 tumor growth inhibition ([4]; sunflower oil:EtOH (92:8), 240 mg/kg/0.2 mL s.c. once every other day, end of treatment (40 days)): 100%
- tumor growth after treatment was stopped ([4]; sunflower oil:EtOH (92:8), treatment stopped at day 40, no significant difference seven days after termination): tumor growth resumed
- apparent toxicity during the experimental period or at necropsy [5]: no apparent toxicity
- body weight [5]: not affected
- reduction of PANC-1 tumor size progression ([5]; day 22): 75%
- reduction of PANC-1 tumor progression ([5]; end of treatment (40 days)): 63%
- mice with slightly enlarged kidneys at necropsy ([6]; female, Balb/c, 24 h): 75%
- adverse effect on mice ([6]; 120 mg/kg): no adverse effect
- adverse effect on mice ([6]; 240 mg/kg): no adverse effect
- macroscopic observation of organs at necropsy ([6]; sc): organs did not show any detectable abnormality
- inhibition of CYP3A4 (CYP3A4): weak inhibition
